Like-named read-outs stand apart in the source and are kept apart here.
How the values were obtained:
[1] = Octane enhancement by aromatic amines blended into aviation gasoline (compared to baseline avgas); conditions: for Octane @ 6%*: amine at 6% in aviation gasoline; for Octane @ 9%*: amine at 9% in aviation gasoline
[2] = Solubility / physical state remarks on aromatic amines as avgas components; format: physicochemical; conditions: remark on solubility above 6% or solid state at RT; b32 calls these solubility problems
rat = conditions: cited from earlier work
[3] = occupational exposure limit, estimated; cited from earlier work
[4] = within 10 days; cited from earlier work
[5] = cited from earlier work; for OSHA Hazards: public MSDS / OSHA data
[6] = oral, MSDS data from Sigma-Aldrich, et al.

Row | SMILES | Octane @ 6%* [1] | Octane @ 9%* [1] | further results
1 | Nc1cc(F)c(F)c(F)c1F [2,3,4,5-tetrafluorophenylamine] | 1.70 | 2.50 | Other [2]: solid@RT
2 | Nc1ccccc1Cl [2-chlorophenylamine] | 4.50 | 5.60 | –
3 | Cc1ccc(N)c(F)c1 [2-fluoro-4-metylphenylamine] | 4.00 | 5.10 | –
4 | Cc1ccc(F)c(N)c1 [2-fluoro-5-metylphenylamine] | 3.60 | 5.10 | –
5 | Nc1ccccc1F [2-fluorophenylamine] | 4.20 | 7.30 | –
6 | Cc1ccccc1N [2-methylphenylamine] | 1.70 | 2.10 | –
7 | Cc1ccc(N)cc1C [3,4-dimethylphenylamine] | 5.60 | – | –
8 | Cc1cc(C)cc(N)c1 [3,5-dimethylphenylamine] | 5.70 | 8.70 | –
9 | Nc1cccc(Cl)c1 [3-chlorophenylamine] | 3.60 | – | –
10 | CCc1cccc(N)c1 [3-ethylphenylamine] | 3.80 | 6.60 | –
11 | Cc1c(N)cccc1F [3-fluoro-2-metylphenylamine] | 1.30 | 2.70 | –
12 | Nc1cccc(F)c1 [3-fluorophenylamine] | 4.20 | 6.70 | –
13 | Cc1cccc(N)c1 [3-methylphenylamine] | 5.40 | 7.40 | LD50 (rat, oral) (rat; in vivo, po): 450 mg/kg
14 | CCc1ccc(N)cc1 [4-ethylphenylamine] | 3.80 | 6.30 | –
15 | Cc1cc(F)ccc1N [4-fluoro-2-metylphenylamine] | 1.60 | 2.10 | –
16 | Nc1ccc(F)cc1 [4-fluorophenylamine] | 4.20 | 7.50 | –
17 | Cc1ccc(N)cc1 [4-methylphenylamine] | 6.10 | – | –
18 | CC(C)(C)c1ccc(N)cc1 [4-t-butylphenylamine] | 4.20 | 6.60 | –
19 | Cc1ccc(F)cc1N [5-fluoro-2-metylphenylamine] | 1.60 | 2.10 | –
20 | c1ccccc1 [Benzene] | – | – | LD50 (rat, oral) (rat; in vivo, po): 2,990 mg/kg
21 | CC(C)c1ccc(N)cc1 [Cumidine, 4-isopropylaniline] | 4.40 | 7.20 | TWA [3]: ~2 ppm; biodegradable [4]: 88%; LD50 (rat, oral) (rat; oral, MSDS No. 818472, EMD Millipore): 757 mg/kg; LD50 (rat, oral) (rat; [6]): 757 mg/kg; classification as mutagen or carcinogen ([5]; MSDS No. 818472, EMD Millipore): not classified as a mutagen or carcinogen
22 | CCOC(C)(C)C [ETBE, ethyl tert-butyl ether] | – | – | LD50 (rat, oral) (rat; [6]): 5,000 mg/kg; OSHA Hazards [5]: Irritant
23 | Cc1cc(C)cc(C)c1 [Mesitylene] | – | – | LD50 (rat, oral) (rat; [6]): 5,000 mg/kg
24 | CCNc1ccccc1 [N-ethylphenylamine] | −2.50 | – | –
25 | CNc1ccc(F)cc1 [N-methyl-4-fluorophenylamine] | 2.50 | 2.60 | –
26 | CNc1ccccc1 [N-methylphenylamine] | 2.10 | 2.60 | –
27 | C[CH2][Pb]([CH2]C)([CH2]C)[CH2]C [TEL, Tetraethyl lead] | – | – | LD50 (rat, oral) (rat; [6]): 14 mg/kg
28 | Cc1ccccc1 [Toluene] | – | – | LD50 (rat, oral) (rat; [6]): 5,000 mg/kg
29 | Nc1ccccc1 [phenylamine] | 5.70 | 8.70 | LD50 (rat, oral) (rat; in vivo, po): 250 mg/kg; OSHA Hazards ([5]; listed as aniline): irritant

Reference: patent US20180051221A1, “UNLEADED GASOLINE FORMULATIONS FOR PISTON ENGINES” (Swift Fuels, LLC, priority 2014, published 2018)
